# Measured values published in the NIST ThermoML archive (doi:10.1016/j.jct.2016.02.014).
# Numbers after ± are expanded uncertainties.
# Test: xn = mol fraction of the nth substance listed
# Settings: 100 kPa, Liquid; for viscosity: Capillary tube (Ostwald / Ubbelohde) method; for mass density: Vibrating tube method
compound,measurement,setting,value
O=C1CCCO1 [γ-butyrolactone] + CCCCn1cc[n+](C)c1.N#CN=C=[N-],viscosity,"273.15 K, x2 = 0",2.69 ± 0.06 mPa·s
same,viscosity,"273.15 K, x2 = 0.0504",3.61 ± 0.08 mPa·s
same,viscosity,"273.15 K, x2 = 0.1002",4.65 ± 0.11 mPa·s
same,viscosity,"273.15 K, x2 = 0.2002",7.69 ± 0.17 mPa·s
same,viscosity,"273.15 K, x2 = 0.2984",11.85 ± 0.27 mPa·s
same,viscosity,"273.15 K, x2 = 0.4005",17.81 ± 0.4 mPa·s
same,viscosity,"273.15 K, x2 = 0.4954",24.81 ± 0.56 mPa·s
same,viscosity,"273.15 K, x2 = 0.6957",45.75 ± 1 mPa·s
same,viscosity,"273.15 K, x2 = 0.8871",74.11 ± 1.7 mPa·s
same,mass density,"273.15 K, x2 = 0",1149.15 ± 9.2 kg/m3
same,mass density,"273.15 K, x2 = 0.0504",1142.33 ± 9.1 kg/m3
same,mass density,"273.15 K, x2 = 0.1002",1136.31 ± 9.1 kg/m3
same,mass density,"273.15 K, x2 = 0.2002",1124.63 ± 9 kg/m3
same,mass density,"273.15 K, x2 = 0.2984",1114.82 ± 8.9 kg/m3
same,mass density,"273.15 K, x2 = 0.4005",1106.01 ± 8.9 kg/m3
same,mass density,"273.15 K, x2 = 0.4954",1099.09 ± 8.8 kg/m3
same,mass density,"273.15 K, x2 = 0.6957",1087.48 ± 8.7 kg/m3
same,mass density,"273.15 K, x2 = 0.8871",1079.17 ± 8.7 kg/m3
same,viscosity,"283.15 K, x2 = 0",2.21 ± 0.05 mPa·s
same,viscosity,"283.15 K, x2 = 0.0504",2.94 ± 0.07 mPa·s
same,viscosity,"283.15 K, x2 = 0.1002",3.73 ± 0.09 mPa·s
same,viscosity,"283.15 K, x2 = 0.2002",5.87 ± 0.13 mPa·s
same,viscosity,"283.15 K, x2 = 0.2984",8.75 ± 0.19 mPa·s
same,viscosity,"283.15 K, x2 = 0.4005",12.54 ± 0.28 mPa·s
same,viscosity,"283.15 K, x2 = 0.4954",16.9 ± 0.38 mPa·s
same,viscosity,"283.15 K, x2 = 0.6957",29.14 ± 0.65 mPa·s
same,viscosity,"283.15 K, x2 = 0.8871",44.36 ± 1 mPa·s
same,mass density,"283.15 K, x2 = 0",1139.31 ± 9.1 kg/m3
same,mass density,"283.15 K, x2 = 0.0504",1133.08 ± 9.1 kg/m3
same,mass density,"283.15 K, x2 = 0.1002",1127.5 ± 9 kg/m3
same,mass density,"283.15 K, x2 = 0.2002",1116.53 ± 8.9 kg/m3
same,mass density,"283.15 K, x2 = 0.2984",1107.21 ± 8.9 kg/m3
same,mass density,"283.15 K, x2 = 0.4005",1098.76 ± 8.8 kg/m3
same,mass density,"283.15 K, x2 = 0.4954",1092.29 ± 8.8 kg/m3
same,mass density,"283.15 K, x2 = 0.6957",1081.06 ± 8.7 kg/m3
same,mass density,"283.15 K, x2 = 0.8871",1072.88 ± 8.6 kg/m3
same,viscosity,"293.15 K, x2 = 0",1.86 ± 0.04 mPa·s
same,viscosity,"293.15 K, x2 = 0.0504",2.42 ± 0.05 mPa·s
same,viscosity,"293.15 K, x2 = 0.1002",2.97 ± 0.07 mPa·s
same,viscosity,"293.15 K, x2 = 0.2002",4.53 ± 0.1 mPa·s
same,viscosity,"293.15 K, x2 = 0.2984",6.68 ± 0.15 mPa·s
same,viscosity,"293.15 K, x2 = 0.4005",9.31 ± 0.21 mPa·s
same,viscosity,"293.15 K, x2 = 0.4954",12.22 ± 0.27 mPa·s
same,viscosity,"293.15 K, x2 = 0.6957",19.95 ± 0.45 mPa·s
same,viscosity,"293.15 K, x2 = 0.8871",28.87 ± 0.65 mPa·s
same,mass density,"293.15 K, x2 = 0",1129.49 ± 9 kg/m3
same,mass density,"293.15 K, x2 = 0.0504",1123.86 ± 9 kg/m3
same,mass density,"293.15 K, x2 = 0.1002",1118.73 ± 9 kg/m3
same,mass density,"293.15 K, x2 = 0.2002",1108.38 ± 8.9 kg/m3
same,mass density,"293.15 K, x2 = 0.2984",1099.49 ± 8.8 kg/m3
same,mass density,"293.15 K, x2 = 0.4005",1091.44 ± 8.7 kg/m3
same,mass density,"293.15 K, x2 = 0.4954",1085.13 ± 8.7 kg/m3
same,mass density,"293.15 K, x2 = 0.6957",1074.27 ± 8.6 kg/m3
same,mass density,"293.15 K, x2 = 0.8871",1066.34 ± 8.6 kg/m3
same,viscosity,"298.15 K, x2 = 0",1.71 ± 0.04 mPa·s
same,viscosity,"298.15 K, x2 = 0.0504",2.22 ± 0.05 mPa·s
same,viscosity,"298.15 K, x2 = 0.1002",2.77 ± 0.06 mPa·s
same,viscosity,"298.15 K, x2 = 0.2002",4.16 ± 0.09 mPa·s
same,viscosity,"298.15 K, x2 = 0.2984",5.92 ± 0.13 mPa·s
same,viscosity,"298.15 K, x2 = 0.4005",8.18 ± 0.18 mPa·s
same,viscosity,"298.15 K, x2 = 0.4954",10.57 ± 0.23 mPa·s
same,viscosity,"298.15 K, x2 = 0.6957",16.81 ± 0.38 mPa·s
same,viscosity,"298.15 K, x2 = 0.8871",23.85 ± 0.54 mPa·s
same,mass density,"298.15 K, x2 = 0",1124.59 ± 9 kg/m3
same,mass density,"298.15 K, x2 = 0.0504",1119.26 ± 9 kg/m3
same,mass density,"298.15 K, x2 = 0.1002",1114.35 ± 8.9 kg/m3
same,mass density,"298.15 K, x2 = 0.2002",1104.32 ± 8.8 kg/m3
same,mass density,"298.15 K, x2 = 0.2984",1095.65 ± 8.8 kg/m3
same,mass density,"298.15 K, x2 = 0.4005",1087.78 ± 8.7 kg/m3
same,mass density,"298.15 K, x2 = 0.4954",1081.58 ± 8.7 kg/m3
same,mass density,"298.15 K, x2 = 0.6957",1070.9 ± 8.6 kg/m3
same,mass density,"298.15 K, x2 = 0.8871",1063.09 ± 8.5 kg/m3
same,viscosity,"303.15 K, x2 = 0",1.59 ± 0.03 mPa·s
same,viscosity,"303.15 K, x2 = 0.0504",2.03 ± 0.05 mPa·s
same,viscosity,"303.15 K, x2 = 0.1002",2.5 ± 0.06 mPa·s
same,viscosity,"303.15 K, x2 = 0.2002",3.81 ± 0.08 mPa·s
same,viscosity,"303.15 K, x2 = 0.2984",5.27 ± 0.12 mPa·s
same,viscosity,"303.15 K, x2 = 0.4005",7.14 ± 0.16 mPa·s
same,viscosity,"303.15 K, x2 = 0.4954",9.15 ± 0.2 mPa·s
same,viscosity,"303.15 K, x2 = 0.6957",14.23 ± 0.32 mPa·s
same,viscosity,"303.15 K, x2 = 0.8871",19.86 ± 0.45 mPa·s
same,mass density,"303.15 K, x2 = 0",1119.68 ± 9 kg/m3
same,mass density,"303.15 K, x2 = 0.0504",1114.67 ± 8.9 kg/m3
same,mass density,"303.15 K, x2 = 0.1002",1109.99 ± 8.9 kg/m3
same,mass density,"303.15 K, x2 = 0.2002",1100.28 ± 8.8 kg/m3
same,mass density,"303.15 K, x2 = 0.2984",1091.83 ± 8.7 kg/m3
same,mass density,"303.15 K, x2 = 0.4005",1084.14 ± 8.7 kg/m3
same,mass density,"303.15 K, x2 = 0.4954",1078.05 ± 8.6 kg/m3
same,mass density,"303.15 K, x2 = 0.6957",1067.55 ± 8.6 kg/m3
same,mass density,"303.15 K, x2 = 0.8871",1059.86 ± 8.5 kg/m3
same,viscosity,"313.15 K, x2 = 0",1.37 ± 0.03 mPa·s
same,viscosity,"313.15 K, x2 = 0.0504",1.74 ± 0.04 mPa·s
same,viscosity,"313.15 K, x2 = 0.1002",2.14 ± 0.05 mPa·s
same,viscosity,"313.15 K, x2 = 0.2002",3.14 ± 0.07 mPa·s
same,viscosity,"313.15 K, x2 = 0.2984",4.27 ± 0.09 mPa·s
same,viscosity,"313.15 K, x2 = 0.4005",5.64 ± 0.12 mPa·s
same,viscosity,"313.15 K, x2 = 0.4954",7.11 ± 0.16 mPa·s
same,viscosity,"313.15 K, x2 = 0.6957",10.69 ± 0.24 mPa·s
same,viscosity,"313.15 K, x2 = 0.8871",14.53 ± 0.33 mPa·s
same,mass density,"313.15 K, x2 = 0",1109.87 ± 8.9 kg/m3
same,mass density,"313.15 K, x2 = 0.0504",1105.49 ± 8.8 kg/m3
same,mass density,"313.15 K, x2 = 0.1002",1101.27 ± 8.8 kg/m3
same,mass density,"313.15 K, x2 = 0.2002",1092.23 ± 8.7 kg/m3
same,mass density,"313.15 K, x2 = 0.2984",1084.22 ± 8.7 kg/m3
same,mass density,"313.15 K, x2 = 0.4005",1076.84 ± 8.6 kg/m3
same,mass density,"313.15 K, x2 = 0.4954",1071.02 ± 8.6 kg/m3
same,mass density,"313.15 K, x2 = 0.6957",1060.89 ± 8.5 kg/m3
same,mass density,"313.15 K, x2 = 0.8871",1053.44 ± 8.5 kg/m3
same,viscosity,"323.15 K, x2 = 0",1.2 ± 0.03 mPa·s
same,viscosity,"323.15 K, x2 = 0.0504",1.52 ± 0.03 mPa·s
same,viscosity,"323.15 K, x2 = 0.1002",1.83 ± 0.04 mPa·s
same,viscosity,"323.15 K, x2 = 0.2002",2.63 ± 0.06 mPa·s
same,viscosity,"323.15 K, x2 = 0.2984",3.56 ± 0.08 mPa·s
same,viscosity,"323.15 K, x2 = 0.4005",4.6 ± 0.1 mPa·s
same,viscosity,"323.15 K, x2 = 0.4954",5.7 ± 0.13 mPa·s
same,viscosity,"323.15 K, x2 = 0.6957",8.38 ± 0.19 mPa·s
same,viscosity,"323.15 K, x2 = 0.8871",11.03 ± 0.25 mPa·s
same,mass density,"323.15 K, x2 = 0",1100.05 ± 8.8 kg/m3
same,mass density,"323.15 K, x2 = 0.0504",1096.31 ± 8.8 kg/m3
same,mass density,"323.15 K, x2 = 0.1002",1092.59 ± 8.7 kg/m3
same,mass density,"323.15 K, x2 = 0.2002",1084.21 ± 8.7 kg/m3
same,mass density,"323.15 K, x2 = 0.2984",1076.75 ± 8.6 kg/m3
same,mass density,"323.15 K, x2 = 0.4005",1069.73 ± 8.6 kg/m3
same,mass density,"323.15 K, x2 = 0.4954",1064.05 ± 8.5 kg/m3
same,mass density,"323.15 K, x2 = 0.6957",1054.29 ± 8.5 kg/m3
same,mass density,"323.15 K, x2 = 0.8871",1047.09 ± 8.4 kg/m3
